As usually defined, the IC50 is the concentration at which inhibition is half-maximal.

For test [1], the system named is WT cell line SK-BR-3. Kind of test: Phospho-AKT (Ser473) Inhibition Assay (HTRF), SK-BR-3. Conditions: Homo sapiens; SK-BR-3, 1 hour treatment; read-out: p-AKT Inhibition assay (S473) IC50 SK-BR-3. The format is cell-based. How it is done: The SK-BR-3 (ATCC, HTB-30) cell line was obtained from the American Type Culture Collection. Cells were maintained in McCoy' 5A medium (Gibco, REF #16600108) supplemented with 10% Fetal Bovine Serum. Cultures were maintained in a humidified incubator at 37° C. under 5% CO2/95% air.
(§1) Phospho-AKT Inhibition Assay. HTRF Phospho-AKT (Ser473) detection kit (Cisbio, REF #64AKSPEH) was used in phosphor-AKT inhibition assay. For compound screening, PI3Kα H1047R mutated cell line T-47D and WT cell line SK-BR-3 cells were seeded at a density of 3×10^4 cells per well in 96 well plate (Costar, REF #3599) in 95 μL of assay medium (MEM medium (Gibco, REF #12561-056) with 1×NEAA (Gibco, REF #11140-050), 1 mM sodium pyruvate (Gibco, REF #11360-070), and 1 g/ml human insulin (Topscience, REF #T8221)), overnight. Compounds dissolved in 10 mM stock solutions in DMSO were serially diluted 1:3 in DMSO to generate an 11-point dilution series and plated using an INTEGRA ASSIST PLUS pipetting robot. A 20× intermediate compound dilution plate in RPMI1640 medium (200 M starting compound concentration in 2% DMSO) was then prepared. Five μL of intermediate serially diluted compounds were added to the cell plate to final concentrations ranging from […] to 0.1 nM in 0.1% DMSO. 0.1% DMSO alone was used to establish the maximum signal and GDC0077 at final concentration of 10 μM was used as a reference compound for minimum signal. After 1 hour treatment, removed medium and added 50 μL of supplemented lysis buffer (1×) immediately. Incubated for at least 30 minutes at room temperature under shaking. Transferred 16 μL of cell lysate from the 96-well cell-culture plate to a 384-white detection plate (PerkinElmer, Optiplate 384, 6007299). Added 4 μL of premixed antibody solutions prepared in the detection buffer. Incubated 4 hours at room temperature in dark. The plates were read on PHERAstar FSX Microplate reader (BMG LABTECH, Inc.) using standard HTRF settings.
(§2) Relative IC50 values were determined using luminescence units by calculating percent inhibition with respect to the in-plate “MIN” (GDC0077 reference control) and “MAX” (DMSO) controls. The data were analyzed using a 4-parameter nonlinear logistic equation (four-parameter logistic concentration-response curve): Y=bottom+[(top−bottom)/1+(X/IC50) slope] • where Y=% inhibition, X=concentration of inhibitor, bottom=minimum value of y attained by curve-fit, top=maximum value of y attained by curve-fit and slope=steepness of curve at the IC50.
A general note: Time-resolved FRET reads energy transfer from a long-lived donor to a nearby acceptor.

For test [2], the system named is PI3Kα H1047R mutated cell line T-47D cells. Kind of test: Cell Proliferation Assay (CellTiter-Glo), T-47D. The format is cell-based. Conditions: for IC50: Homo sapiens, T47D, 72 h, T-47D, 3 days treatment; for Selectivity: SK-BR-3/T-47D (cell proliferation): cell proliferation IC50 ratio. The protocol:
(§3) Cell Culture Maintenance. The T-47D (ATCC, HTB-133) cell line was obtained from the American Type Culture Collection. Cells were maintained in RPMI1640 medium (Gibco, REF #22400105) supplemented with 10% Fetal Bovine Serum (Gibco, REF #10091148). Cultures were maintained in a humidified incubator at 37° C. under 5% CO2/95% air.
Cell Proliferation Assay. PI3Kα H1047R mutated cell line T-47D cells and WT cell line SK-BR-3 were seeded at a density of 3×10^3 cells per well in 96 well plate (Xinyou Biotechnology, 062096) in 95 μL of culture medium, overnight. Compounds dissolved in 10 mM stock solutions in DMSO were serially diluted 1:3 in DMSO to generate a 9-point dilution series and plated using an INTEGRA ASSIST Plus pipetting robot. A 20× intermediate compound dilution plate in RPMI1640 medium (200 M starting compound concentration in 2% DMSO) was then prepared. Five μL of intermediate serially diluted compounds were added to the cell plate to final concentrations ranging from […] to 1 nM in 0.1% DMSO. 0.1% DMSO alone was used to establish the maximum signal and medium without cells was for minimum signal. After 3 days treatment, equilibrated the plate and its contents at room temperature for approximately 30 minutes. Added 30 μL CellTiter-Glo® Reagent (Promega, REF #G7571) to each well. Then mixed contents for 5 min on plate shaker to induce cell lysis. Incubated at room temperature for 10 minutes to stabilize luminescent signal. The plates were read on PHERAstar FSX Microplate reader using standard luminescence settings.
Relative IC50 values were determined using luminescence units by calculating percent inhibition with respect to the in-plate “MIN” (medium only) and “MAX” (0.1% DMSO) controls. The data were analyzed using a 4-parameter nonlinear logistic equation (four-parameter logistic concentration-response curve): Y=bottom+[(top−bottom)/1+(X/IC50) slope] • where Y=% inhibition, X=concentration of inhibitor, bottom=minimum value of y attained by curve-fit, top=maximum value of y attained by curve-fit and slope=steepness of curve at the IC50.
(In general: Cellular ATP, detected with luciferase, serves as a proxy for viable cell number.)

Test [3] has as its target PI3Kα (p110/p85) kinase (wild type, "WT") (Homo sapiens, UniProt P42336). Kind of test: PI3Kα (p110/p85) kinase ADP-Glo Assay. The format is biochemical. As to conditions: 25 uM ATP. The protocol: PI3Kα (p110/p85) kinase ADP-Glo Assay. Certain compounds disclosed herein were tested for inhibition of PI3Kα (p110/p85) kinase (wild type, “WT”) in assays based on the ADP-Glo™ Kinase Assay methodology. The assays were carried out in 384-well white plates in a reaction mixture containing PI3Kα (p110/p85) kinase, 25 µM ATP, 5.35 µg/mL PI(4,5)P2:PS Lipid Kinase Substrate and […] compound in buffer containing 50 mM HEPES pH7.5, 50 mM NaCl, 3 mM MgCl2, 0.0025% BSA and 2 mM DTT. PI3Kα (p110/p85) kinase was incubated with Lipid Kinase Substrate and compound for 30 minutes at room temperature and the reaction was initiated by the addition of ATP. After reaction at room temperature for 120 minutes, ADP-Glo™ reagents were added to terminate the kinase reaction and deplete the remaining ATP according to the manufacture's instruction (Promega Corporation). After incubation at room temperature for 1 hour, Kinase Detection Reagent (prepared by reconstituting the lyophilized Kinase Detection Substrate with Kinase Detection Buffer of the kit) was added to convert the ADP to ATP and to allow for the newly synthesized ATP to be measured using a luciferase/luciferin reaction. After incubation at room temperature for 0.5 hour, chemiluminescence signals were recorded on a PHERAstar FSX plate reader (BMG Labtech). The chemiluminescence generated in this assay correlates to the amount of ADP generated in the kinase assay, indicating kinase activity. […] The IC50 for each compound was derived from fitting the data to the four-parameter logistic equation by Dotmatics.

For test [4], the system named is PI3Kα H1047R mutated cell line T-47D. Kind of test: Phospho-AKT (Ser473) Inhibition Assay (HTRF), T-47D. Conditions: for IC50: Homo sapiens, T47D, T-47D, 1 hour treatment, read-out: p-AKT Inhibition assay (S473) IC50 T-47D; for Selectivity: SK-BR-3/T-47D (p-AKT): p-AKT (S473) IC50 ratio. It is filed as cell-based. How it is done: as §3, §1, §2

Some results are limits rather than exact numbers.

Chain of PI3Kα (p110/p85) kinase (wild type, "WT") (P42336 whole entry): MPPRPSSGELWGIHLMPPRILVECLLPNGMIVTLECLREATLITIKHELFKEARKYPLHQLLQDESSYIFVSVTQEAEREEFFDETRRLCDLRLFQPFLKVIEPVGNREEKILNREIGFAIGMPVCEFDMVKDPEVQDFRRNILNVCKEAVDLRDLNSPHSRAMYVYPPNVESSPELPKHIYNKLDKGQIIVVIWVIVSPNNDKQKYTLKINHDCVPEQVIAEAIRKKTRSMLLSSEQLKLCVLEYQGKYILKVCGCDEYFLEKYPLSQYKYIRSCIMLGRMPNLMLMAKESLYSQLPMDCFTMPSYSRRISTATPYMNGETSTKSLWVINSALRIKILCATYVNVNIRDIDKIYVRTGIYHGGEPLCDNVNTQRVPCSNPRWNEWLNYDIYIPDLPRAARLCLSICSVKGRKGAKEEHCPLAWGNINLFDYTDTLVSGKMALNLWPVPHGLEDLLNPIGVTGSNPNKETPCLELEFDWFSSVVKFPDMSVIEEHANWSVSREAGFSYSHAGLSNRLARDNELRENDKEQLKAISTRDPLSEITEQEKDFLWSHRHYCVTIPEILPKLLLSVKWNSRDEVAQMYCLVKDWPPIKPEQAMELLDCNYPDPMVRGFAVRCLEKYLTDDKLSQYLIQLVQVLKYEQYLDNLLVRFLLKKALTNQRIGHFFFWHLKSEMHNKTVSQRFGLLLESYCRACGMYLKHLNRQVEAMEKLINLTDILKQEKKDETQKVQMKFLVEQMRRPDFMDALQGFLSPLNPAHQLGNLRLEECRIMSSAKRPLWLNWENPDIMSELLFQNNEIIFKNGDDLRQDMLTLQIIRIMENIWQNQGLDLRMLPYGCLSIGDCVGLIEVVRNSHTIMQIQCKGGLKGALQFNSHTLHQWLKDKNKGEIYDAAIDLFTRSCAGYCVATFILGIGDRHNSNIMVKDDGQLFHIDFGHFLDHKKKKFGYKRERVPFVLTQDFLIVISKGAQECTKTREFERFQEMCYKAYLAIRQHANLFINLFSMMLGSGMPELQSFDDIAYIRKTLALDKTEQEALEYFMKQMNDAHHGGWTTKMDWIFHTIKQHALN
Chain of PI3Kα (p110/p85) kinase (wild type, "WT") (P27986 whole entry partner): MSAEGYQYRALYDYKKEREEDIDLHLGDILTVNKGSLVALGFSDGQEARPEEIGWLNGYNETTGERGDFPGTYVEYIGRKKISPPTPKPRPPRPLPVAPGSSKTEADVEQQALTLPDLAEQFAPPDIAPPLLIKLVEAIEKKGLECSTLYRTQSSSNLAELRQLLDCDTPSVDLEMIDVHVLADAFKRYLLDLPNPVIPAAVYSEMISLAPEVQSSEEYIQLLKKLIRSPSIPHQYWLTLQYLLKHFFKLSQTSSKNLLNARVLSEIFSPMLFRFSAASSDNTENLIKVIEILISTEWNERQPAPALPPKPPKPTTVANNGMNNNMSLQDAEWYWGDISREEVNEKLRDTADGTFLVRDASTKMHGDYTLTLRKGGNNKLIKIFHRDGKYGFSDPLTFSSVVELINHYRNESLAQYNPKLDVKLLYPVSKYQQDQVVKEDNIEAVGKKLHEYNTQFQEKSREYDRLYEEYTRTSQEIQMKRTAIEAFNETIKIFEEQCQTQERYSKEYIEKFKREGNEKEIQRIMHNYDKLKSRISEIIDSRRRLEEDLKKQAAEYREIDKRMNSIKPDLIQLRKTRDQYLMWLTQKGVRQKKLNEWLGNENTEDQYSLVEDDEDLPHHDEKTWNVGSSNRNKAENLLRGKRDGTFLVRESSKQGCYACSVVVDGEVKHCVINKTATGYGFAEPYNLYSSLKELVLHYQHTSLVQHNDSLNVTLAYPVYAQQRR

In the case of `Cc1cc(C(C)Nc2ccccc2C(=O)O)c2cc(-c3ccccc3)n(C)c(=O)c2c1` (stereo not drawn) [Example 1, 2-((1-(2,7-dimethyl-1-oxo-3-phenyl-1,2-dihydroisoquinolin-5-yl)ethyl)amino)benzoic acid], the IC50 in test [1] was 2110 nM; in test [2], 84.6 nM; in test [3] it was 2770 nM; in test [4], 43.5 nM. For the same molecule, the “Selectivity: SK-BR-3/T-47D (cell proliferation)” value in test [2] was greater than 118. Also, the “Selectivity: SK-BR-3/T-47D (p-AKT)” value in test [4] was determined as 48.6.

Turning to `Cc1cc(C(C)Nc2ccccc2C(=O)O)c2cc(-c3ccccc3C)n(C)c(=O)c2c1` (stereo not drawn) [Example 2, 2-((1-(2,7-dimethyl-1-oxo-3-(o-tolyl)-1,2-dihydroisoquinolin-5-yl)ethyl)amino)benzoic acid], the IC50 in test [1] came to 2850 nM; in test [2], 1230 nM; in test [3], 22400 nM; in test [4] it was 66.3 nM. Besides, the “Selectivity: SK-BR-3/T-47D (cell proliferation)” value in test [2] was greater than 8.2. In test [4], the “Selectivity: SK-BR-3/T-47D (p-AKT)” value is given as 43.0.

Regarding `Cc1cc(C(C)Nc2ccccc2C(=O)O)c2cc(-c3cccc(C#N)c3)n(C)c(=O)c2c1` (stereo not drawn) [Example 3, 2-((1-(3-(3-cyanophenyl)-2,7-dimethyl-1-oxo-1,2-dihydroisoquinolin-5-yl)ethyl)amino)benzoic acid], the IC50 in test [1] came to 4350 nM; in test [2], 143 nM; in test [3], 9850 nM; in test [4], 168 nM. Also, the “Selectivity: SK-BR-3/T-47D (cell proliferation)” value in test [2] was greater than 70. In addition, in test [4], the “Selectivity: SK-BR-3/T-47D (p-AKT)” value worked out at 26.0.

For `Cc1cc(C(C)Nc2ccccc2C(=O)O)c2cc(-c3cccc(C(C)(C)C#N)c3)n(C)c(=O)c2c1` (stereo not drawn) [Example 5, 2-((1-(3-(3-(2-cyanopropan-2-yl)phenyl)-2,7-dimethyl-1-oxo-1,2-dihydroisoquinolin-5-yl)ethyl)amino)benzoic acid], the IC50 was 4620 nM in test [1], 520 nM in test [2], 5280 nM in test [3] and 135 nM in test [4]. Besides, the “Selectivity: SK-BR-3/T-47D (cell proliferation)” value in test [2] was greater than 19. The “Selectivity: SK-BR-3/T-47D (p-AKT)” value in test [4] worked out at 34.3.

`Cc1cc(C(C)Nc2ccccc2C(=O)O)c2cc(-c3ccccc3F)n(C)c(=O)c2c1` (stereo not drawn) [Example 6, 2-((1-(3-(2-fluorophenyl)-2,7-dimethyl-1-oxo-1,2-dihydroisoquinolin-5-yl)ethyl)amino)benzoic acid]: the IC50 turned out to be 3210 nM in test [1], 326 nM in test [2], 2880 nM in test [3] and 62.4 nM in test [4]. Also, the “Selectivity: SK-BR-3/T-47D (cell proliferation)” value in test [2] was greater than 31. In test [4], the “Selectivity: SK-BR-3/T-47D (p-AKT)” value is reported as 51.5.

With `Cc1cc(C(C)Nc2ccccc2C(=O)O)c2cc(-c3cccc(F)c3)n(C)c(=O)c2c1` (stereo not drawn) [Example 7, 2-((1-(3-(3-fluorophenyl)-2,7-dimethyl-1-oxo-1,2-dihydroisoquinolin-5-yl)ethyl)amino)benzoic acid], the IC50 in test [1] came out at 1860 nM; in test [2], 101 nM; in test [3] it was 2520 nM; in test [4], 53.9 nM. Moreover, the “Selectivity: SK-BR-3/T-47D (cell proliferation)” value in test [2] is given as greater than 98.8. The “Selectivity: SK-BR-3/T-47D (p-AKT)” value in test [4] is reported as 34.5.

Take `Cc1cc(C(C)Nc2ccccc2C(=O)O)c2cc(-c3ccc(F)cc3)n(C)c(=O)c2c1` (stereo not drawn) [Example 8, 2-((1-(3-(4-fluorophenyl)-2,7-dimethyl-1-oxo-1,2-dihydroisoquinolin-5-yl)ethyl)amino)benzoic acid]: the IC50 was determined as 2500 nM in test [1], 158 nM in test [2], 5960 nM in test [3] and 66.4 nM in test [4]. Also, in test [2], the “Selectivity: SK-BR-3/T-47D (cell proliferation)” value is reported as greater than 63. The “Selectivity: SK-BR-3/T-47D (p-AKT)” value in test [4] came to 37.7.

Consider `Cc1cc(C(C)Nc2ccccc2C(=O)O)c2cc(-c3ccc(F)c(F)c3)n(C)c(=O)c2c1` (stereo not drawn) [Example 9, 2-((1-(3-(3,4-difluorophenyl)-2,7-dimethyl-1-oxo-1,2-dihydroisoquinolin-5-yl)ethyl)amino)benzoic acid], for which the IC50 in test [1] was found to be 3640 nM; in test [2], 143 nM; in test [3], 2710 nM; in test [4] it was 70.9 nM. Also, the “Selectivity: SK-BR-3/T-47D (cell proliferation)” value in test [2] is recorded as greater than 70. Also, in test [4], the “Selectivity: SK-BR-3/T-47D (p-AKT)” value came out at 51.4.

For the molecule `Cc1cc(C(C)Nc2ccccc2C(=O)O)c2cc(-c3cc(F)cc(F)c3)n(C)c(=O)c2c1` (stereo not drawn) [Example 10, 2-((1-(3-(3,5-difluorophenyl)-2,7-dimethyl-1-oxo-1,2-dihydroisoquinolin-5-yl)ethyl)amino)benzoic acid], the IC50 in test [1] worked out at 2730 nM; in test [2], 128 nM; in test [3], 8080 nM; in test [4], 82 nM. Moreover, the “Selectivity: SK-BR-3/T-47D (cell proliferation)” value in test [2] is greater than 78. Besides, the “Selectivity: SK-BR-3/T-47D (p-AKT)” value in test [4] was 33.3.

For the molecule `Cc1cc(C(C)Nc2ccccc2C(=O)O)c2cc(-c3ccc(F)cc3F)n(C)c(=O)c2c1` (stereo not drawn) [Example 11, 2-((1-(3-(2,4-difluorophenyl)-2,7-dimethyl-1-oxo-1,2-dihydroisoquinolin-5-yl)ethyl)amino)benzoic acid], the IC50 is greater than 10000 nM in test [1], 490 nM in test [2], 21100 nM in test [3] and 80.2 nM in test [4]. For the same molecule, the “Selectivity: SK-BR-3/T-47D (cell proliferation)” value in test [2] is recorded as greater than 20.42. The “Selectivity: SK-BR-3/T-47D (p-AKT)” value in test [4] is reported as greater than 125.

Source of the values: patent US20260125346A1, “Isoquinolinone Derivatives and 4H-Quinolizinone Derivatives and Pharmaceutical Compositions Thereof for the Treatment of Disease” (BeOne Medicines I GmbH, priority 2023, published 2026).
